Here are results for 41 compounds from US8946257B2, “N-containing heteroaryl derivatives as JAK3 kinase inhibitors” (Vectura Limited, priority 2009, dated 2015).

Structures are written as SMILES. Where only a bound is given, the exact number is not on record here.

In general, inhibition refers to the relative decrease from the control value, in per cent. Higher therefore signals strong suppression.

T1 sequence (O60674 849-1124 limits assumed): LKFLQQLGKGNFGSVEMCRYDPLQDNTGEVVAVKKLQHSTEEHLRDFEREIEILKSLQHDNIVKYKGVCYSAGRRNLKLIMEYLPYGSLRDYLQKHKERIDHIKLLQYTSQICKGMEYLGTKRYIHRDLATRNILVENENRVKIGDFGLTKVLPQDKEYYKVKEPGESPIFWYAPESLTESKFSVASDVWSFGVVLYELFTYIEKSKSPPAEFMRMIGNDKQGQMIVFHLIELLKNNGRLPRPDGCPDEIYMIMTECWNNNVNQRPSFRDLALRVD

This assay concerns the target T1, catalytic domain of human JAK2 (Homo sapiens, UniProt O60674).
T1 construct: the catalytic domain of human JAK2
The assay can be described thus: Inhibition of JAK2 activity (Z'-Lyte Kinase Assay kit-Tyr 6 Peptide). In kind it is biochemical. As to the method:
The inhibition of JAK2 kinase activity was determined in 384-well assay microplates using the Z′-Lyte® Kinase Assay kit-Tyr 6 Peptide kit, supplied by Invitrogen (Ref: PV4122), following the manufacturer's instructions.
In a final volume of 10 μL per well, 2.5 μL of the product to be tested dissolved in 4% DMSO (final concentration of the product to be tested, 0.1-10000 nM) was incubated with 0.5 μg/well of the catalytic domain of human JAK2, 2 μM of the substrate peptide Z′-Lyte® Tyr 6 and 16 μM of ATP; all components were dissolved in 50 mM pH 7.5 Hepes buffer, 10 mM Magnesium chloride (II), 1 mM EGTA and 0.01% Brij® 35. The reaction was started by the addition of said 16 μM ATP; after incubation for 1 hour at 25° C., 5 μL of A Z′-Lyte® Tyr 6 development reagent was added and the mixture was incubated for 1 hour at 25° C. Phosphorylation was then quantified in each well using a Safire2® fluorescence microplate reader from Tecan.
Compound `O=c1[nH]c2cnc(-c3cnn4ccccc34)nc2n1C1CCOCC1` [Example 3, 2-(Pyrazolo[1,5-a]pyridin-3-yl)-9-(tetrahydro-2H-pyran-4-yl)-7H-purin-8(9H)-one] showed an inhibition at 1 µM of more than 50%.

`CC(C)(C)OC(=O)N1CCC[C@H](n2c(=O)[nH]c3cnc(-c4cnn5ccccc45)nc32)C1` [Example 3b, (S)-tert-butyl 3-(8-oxo-2-(pyrazolo[1,5-a]pyridin3-yl)-7H-purin-9(8H)-yl)piperidine-1-carboxylate] came in with an inhibition at 1 µM of more than 50%.

With `O=c1[nH]c2cnc(-c3cnn4ccccc34)nc2n1C1CCOc2c(F)cccc21` (centres unmarked) [Example 3d, 9-(8-fluorochroman-4-yl)-2-(pyrazolo[1,5-a]pyridin-3-yl)-7H-purin-8(9H)-one], the inhibition at 1 µM was more than 50%.

In the case of `COC(=O)[C@H](C)n1c(=O)[nH]c2cnc(-c3cnn4ccccc34)nc21` [Example 3e, methyl (2S)-2-(8-oxo-2-(pyrazolo[1,5-a]pyridin-3-yl)-7,8-dihydro-9H-purin-9-yl)propanoate], the inhibition at 1 µM was more than 50%.

`Cn1c(=O)n(C2CCOc3c(F)cccc32)c2nc(-c3cnn4ccccc34)ncc21` (centres unmarked) [Example 4c, 9-(8-fluorochroman-4-yl)-7-methyl-2-(pyrazolo[1,5-a]pyridin-3-yl)-7H-purin-8(9H)-one] returned an inhibition at 1 µM of more than 50%.

The compound `Cn1c(=O)n([C@H]2CCCN(C(=O)OC(C)(C)C)C2)c2nc(-c3cnn4ccccc34)ncc21` [Example 5, (S)-tert-Butyl 3-(7-methyl-8-oxo-2-(pyrazolo[1,5-a]pyridine-3-yl)-7H-purin-9(8H)-yl)piperidine-1-carboxylate] yielded an inhibition at 1 µM of more than 50%.

Consider `Cn1c(=O)n(C2CCOCC2)c2nc(-c3cnn4ccccc34)ncc21` [Example 5a, 7-methyl-2-(pyrazolo[1,5-a]pyridin-3-yl)-9-(tetrahydro-2H-pyran-4-yl)-7H-purin-8(9H)-one], for which the inhibition at 1 µM is more than 50%.

`Cn1c(=O)n(C2CCOCC2)c2nc(-c3cnn4ccc(C#N)cc34)ccc21` [Example 5b, 3-(1-methyl-2-oxo-3-(tetrahydro-2H-pyran-4-yl)-2,3-dihydro-1H-imidazo[4,5-b]pyridin-5-yl)pyrazolo[1,5-a]pyridine-5-carbonitrile] returned an inhibition at 1 µM of more than 50%.

For `Cn1c(=O)n(C2CCC(F)(F)CC2)c2nc(-c3cnn4ccc(C#N)cc34)ncc21` [Example 5e, 3-(9-(4,4-difluorocyclohexyl)-7-methyl-8-oxo-8,9-dihydro-7H-purin-2-yl)pyrazolo[1,5-a]pyridine-5-carbonitrile], the inhibition at 1 µM is more than 50%.

In the case of `Cn1c(=O)n(C2CCS(=O)(=O)C2)c2nc(-c3cnn4ccc(C#N)cc34)ncc21` (centres unmarked) [Example 5f, 3-(9-(1,1-dioxotetrahydrothien-3-yl)-8,9-dihydro-7-methyl-8-oxopurin-2-yl)pyrazolo[1,5-a]pyridine-5-carbonitrile], the inhibition at 1 µM is more than 50%.

With `Cn1c(=O)n(Cc2ccccc2F)c2nc(-c3cnn4ccc(C#N)cc34)ncc21` [Example 5h, 3-(9-(2-fluorobenzyl)-7-methyl-8-oxo-8,9-dihydro-7H-purin-2-yl)pyrazolo[1,5-a]pyridine-5-carbonitrile], the inhibition at 1 µM is more than 50%.

For the compound `CC(=O)N1CCC(n2c(=O)n(C)c3cnc(-c4cnn5ccc(C(F)(F)F)cc45)nc32)CC1` [Example 5i, 9-(1-acetylpiperidin-4-yl)-7-methyl-2-(5-(trifluoromethyl)pyrazolo[1,5-a]pyridin-3-yl)-7H-purin-8(9H)-one], the inhibition at 1 µM is more than 50%.

`N#CCC(=O)N1CCC[C@H](n2c(=O)[nH]c3ccc(-c4cnn5ccccc45)nc32)C1` [Example 7p, (S)-3-oxo-3-(3-(2-oxo-5-(pyrazolo[1,5-a]pyridin-3-yl)-1H-imidazo[4,5-b]pyridin-3(2H)-yl)piperidin-1-yl)propanenitrile] gave an inhibition at 1 µM of more than 50%.

The compound `CC(C)C(=O)N1CCC[C@H](n2c(=O)[nH]c3ccc(-c4cnn5ccccc45)nc32)C1` [Example 8d, (S)-3-(1-isobutyrylpiperidin-3-yl)-5-(pyrazolo[1,5-a]pyridin-3-yl)-1H-imidazo[4,5-b]pyridin-2(3H)-one] came in with an inhibition at 1 µM of more than 50%.

Regarding `CS(=O)(=O)N1CCC[C@H](n2c(=O)[nH]c3cnc(-c4cnn5ccccc45)nc32)C1` [Example 9a, (S)-9-(1-(methylsulfonyl)piperidin-3-yl)-2-(pyrazolo[1,5-a]pyridin-3-yl)-7H-purin-8(9H)-one], the inhibition at 1 µM was more than 50%.

Compound `CCCS(=O)(=O)N1CCC[C@H](n2c(=O)[nH]c3cnc(-c4cnn5ccc(C#N)cc45)nc32)C1` [Example 9b, (S)-3-(8-oxo-9-(1-(propylsulfonyl)piperidin-3-yl)-8,9-dihydro-7H-purin-2-yl)pyrazolo[1,5-a]pyridine-5-carbonitrile] gave an inhibition at 1 µM of more than 50%.

The compound `N#Cc1ccn2ncc(-c3ncc4[nH]c(=O)n([C@H]5CCCN(S(=O)(=O)CC(F)(F)F)C5)c4n3)c2c1` [Example 9c, (S)-3-(8-oxo-9-(1-(2,2,2-trifluoroethylsulfonyl)piperidin-3-yl)-8,9-dihydro-7H-purin-2-yl)pyrazolo[1,5-a]pyridine-5-carbonitrile] came in with an inhibition at 1 µM of more than 50%.

`Cn1c(=O)n([C@H]2CCCN(S(C)(=O)=O)C2)c2nc(-c3cnn4ccccc34)ccc21` [Example 9f, (S)-1-methyl-3-(1-(methylsulfonyl)piperidin-3-yl)-5-(pyrazolo[1,5-a]pyridin-3-yl)-1H-imidazo[4,5-b]pyridin-2(3H)-one] displayed an inhibition at 1 µM of more than 50%.

In turn, `Cc1ccn2ncc(-c3ncc4[nH]c(=O)n([C@H]5CCCN(S(C)(=O)=O)C5)c4n3)c2c1` [Example 9g, (S)-2-(5-methylpyrazolo[1,5-a]pyridin-3-yl)-9-(1-(methylsulfonyl)piperidin-3-yl)-7H-purin-8(9H)-one] registered an inhibition at 1 µM of more than 50%.

As to `N#Cc1ccn2ncc(-c3ncc4[nH]c(=O)n([C@H]5CCCN(C(=O)CO)C5)c4n3)c2c1` [Example 10a], the inhibition at 1 µM is more than 50%.

`CC(C)(O)C(=O)N1CCC[C@H](n2c(=O)[nH]c3cnc(-c4cnn5ccc(C#N)cc45)nc32)C1` [Example 10b] gave an inhibition at 1 µM of more than 50%.

On to `CCC(CC)C(=O)N1CCC[C@H](n2c(=O)[nH]c3cnc(-c4cnn5ccc(C#N)cc45)nc32)C1` [Example 10e], for which the inhibition at 1 µM is more than 50%.

For `N#Cc1ccn2ncc(-c3ncc4[nH]c(=O)n([C@H]5CCCN(C(=O)CC(F)(F)F)C5)c4n3)c2c1` [Example 10h], the inhibition at 1 µM is more than 50%.

Regarding `CCC(=O)N1CCC[C@H](n2c(=O)[nH]c3cnc(-c4cnn5ccc(C)cc45)nc32)C1` [Example 10i], the inhibition at 1 µM is more than 50%.

`COCC(=O)N1CCC[C@H](n2c(=O)n(C(=O)COC)c3cnc(-c4cnn5ccc(C)cc45)nc32)C1` [Example 10k]: the inhibition at 1 µM is more than 50%.

In turn, `CC(=O)N1CCC[C@H](n2c(=O)[nH]c3cnc(-c4cnn5ccc(C)cc45)nc32)C1` [Example 10l] displayed an inhibition at 1 µM of more than 50%.

For `Cc1ccn2ncc(-c3ncc4[nH]c(=O)n([C@H]5CCCN(C(=O)CO)C5)c4n3)c2c1` [Example 10m], the inhibition at 1 µM was more than 50%.

On to `N#Cc1ccn2ncc(-c3ncc4[nH]c(=O)n([C@H]5CCCN(C(=O)C6CC6)C5)c4n3)c2c1` [Example 10n], for which the inhibition at 1 µM is more than 50%.

The compound `CCNC(=O)[C@@H](C)n1c(=O)[nH]c2cnc(-c3cnn4ccc(C#N)cc34)nc21` [Example 15f] registered an inhibition at 1 µM of more than 50%.

Compound `C[C@H](C(=O)N(C)C)n1c(=O)[nH]c2cnc(-c3cnn4ccc(C#N)cc34)nc21` [Example 15h] yielded an inhibition at 1 µM of more than 50%.

For `C[C@@H](C(=O)NCC(F)(F)F)n1c(=O)[nH]c2cnc(-c3cnn4ccc(C#N)cc34)nc21` [Example 15i], the inhibition at 1 µM was more than 50%.

The compound `C[C@@H](C(=O)N(C)C)n1c(=O)[nH]c2cnc(-c3cnn4ccccc34)nc21` [Example 15k] gave an inhibition at 1 µM of more than 50%.

Regarding `COCCn1c(=O)n(C2CCOCC2)c2nc(-c3cnn4ccc(C#N)cc34)ncc21` [Example 16, 3-(7-(2-Methoxyethyl)-8-oxo-9-(tetrahydro-2H-pyran-4-yl)-8,9-dihydro-7H-purin-2-yl)pyrazolo[1,5-a]pyridine-5-carbonitrile], the inhibition at 1 µM was more than 50%.

As for `CN(C)CCn1c(=O)n([C@H]2CCCN(C(=O)CC#N)C2)c2nc(-c3cnn4ccc(C#N)cc34)ncc21` [Example 16a], the inhibition at 1 µM was more than 50%.

In turn, `Cc1nc2cnc(-c3cnn4ccc(C#N)cc34)nc2n1C1CCOCC1` [Example 18a] displayed an inhibition at 1 µM of more than 50%.

`Cc1nc2cnc(-c3cnn4ccc(C#N)cc34)nc2n1C1CCC(F)(F)CC1` [Example 18b] came in with an inhibition at 1 µM of more than 50%.

`N#Cc1ccn2ncc(-c3ccc4ncn(C5CCOCC5)c4n3)c2c1` [Example 19, 3-(3-(Tetrahydro-2H-pyran-4-yl)-3H-imidazo[4,5-b]pyridin-5-yl)pyrazolo[1,5-a]pyridine-5-carbonitrile] had an inhibition at 1 µM of more than 50%.

As for `c1csc(-c2nc3cnc(-c4cnn5ccccc45)nc3n2C2CCOCC2)c1` [Example 21k], the inhibition at 1 µM is more than 50%.

Consider `c1ccn2ncc(-c3ncc4nc(C5CC5)n(C5CCOCC5)c4n3)c2c1` [Example 23d], for which the inhibition at 1 µM is more than 50%.

As for `Cn1c(=O)n([C@H]2CCCN(C(=O)C(C)(C)C)C2)c2nc(-c3cnn4ccccc34)ccc21` [Example 24a], the inhibition at 1 µM was more than 50%.

Take `CCC(=O)N1CCC[C@H](n2c(=O)n(C)c3ccc(-c4cnn5ccccc45)nc32)C1` [Example 24c]: the inhibition at 1 µM was more than 50%.
